Test results: ChEMBL document CHEMBL5303573, “Mapping human microbiome drug metabolism by gut bacteria and their genes” (Nature, 2019)

Tests used:
[1] = The drug is tested on Bifidobacterium longum subsp. Infantis strain: CCUG52486 for biotransformation. The drug concentrations were measured before and after a 12-h incubation by liquid-chromatography-coupled mass spectrometry (LC–MS); details: 2 µM
[2] = The drug is tested on Collinsella intestinalis strain: DSM13280 for biotransformation. The drug concentrations were measured before and after a 12-h incubation by liquid-chromatography-coupled mass spectrometry (LC–MS); details: 2 µM
[3] = The drug is tested on Bacteroides pectinophilus strain: ATCC43243 for biotransformation. The drug concentrations were measured before and after a 12-h incubation by liquid-chromatography-coupled mass spectrometry (LC–MS); details: 2 µM
[4] = The drug is tested on Bacteroides vulgatus strain: ATCC8482 for biotransformation. The drug concentrations were measured before and after a 12-h incubation by liquid-chromatography-coupled mass spectrometry (LC–MS); details: phocaeicola vulgatus, 2 µM
[5] = The drug is tested on Bacteroides xylanisolvens strain: DSM18836 for biotransformation. The drug concentrations were measured before and after a 12-h incubation by liquid-chromatography-coupled mass spectrometry (LC–MS); details: 2 µM
[6] = The drug is tested on Anaerotruncus colihominis strain: DSM17241 for biotransformation. The drug concentrations were measured before and after a 12-h incubation by liquid-chromatography-coupled mass spectrometry (LC–MS); details: 2 µM
[7] = The drug is tested on Clostridium scindens strain: ATCC35704 for biotransformation. The drug concentrations were measured before and after a 12-h incubation by liquid-chromatography-coupled mass spectrometry (LC–MS); details: 2 µM
[8] = The drug is tested on Ruminococcus lactaris strain: ATCC29176 for biotransformation. The drug concentrations were measured before and after a 12-h incubation by liquid-chromatography-coupled mass spectrometry (LC–MS); details: 2 µM
[9] = The drug is tested on Providencia rettgeri strain: DSM1131 for biotransformation. The drug concentrations were measured before and after a 12-h incubation by liquid-chromatography-coupled mass spectrometry (LC–MS); assay type: ADME; set-up: dose 2 uM, timepoint 0 vs 12 hours; details: 2 µM
[10] = bacteroides eggerthii, 12 h, 2 µM
Description: The drug is tested on Bacteroides eggerthii strain: DSM20697 for biotransformation. The drug concentrations were measured before and after a 12-h incubation by liquid-chromatography-coupled mass spectrometry (LC–MS)

[11] = bacteroides fragilis, 12 h, 2 µM
Description: The drug is tested on Bacteroides fragilis strain: NCTC 9343 for biotransformation. The drug concentrations were measured before and after a 12-h incubation by liquid-chromatography-coupled mass spectrometry (LC–MS)

[12] = bacteroides intestinalis, 12 h, 2 µM
Description: The drug is tested on Bacteroides intestinalis strain: DSM17393 for biotransformation. The drug concentrations were measured before and after a 12-h incubation by liquid-chromatography-coupled mass spectrometry (LC–MS)

[13] = bacteroides thetaiotaomicron, 12 h, 2 µM
Description: The drug is tested on Bacteroides thetaiotaomicron strain: VPI-5482 for biotransformation. The drug concentrations were measured before and after a 12-h incubation by liquid-chromatography-coupled mass spectrometry (LC–MS)

[14] = The drug is tested on Parabacteroides merdae strain: ATCC43184 for biotransformation. The drug concentrations were measured before and after a 12-h incubation by liquid-chromatography-coupled mass spectrometry (LC–MS); details: 2 µM
[15] = bacteroides fragilis, 12 h, 2 µM; remark: listed apart in the source
Description: The drug is tested on Bacteroides fragilis strain: DS-208 for biotransformation. The drug concentrations were measured before and after a 12-h incubation by liquid-chromatography-coupled mass spectrometry (LC–MS)

[16] = bacteroides stercoris, 12 h, 2 µM
Description: The drug is tested on Bacteroides stercoris strain: ATCC43183 for biotransformation. The drug concentrations were measured before and after a 12-h incubation by liquid-chromatography-coupled mass spectrometry (LC–MS)

[17] = bacteroides thetaiotaomicron, 12 h, 2 µM; remark: listed apart in the source
Description: The drug is tested on Bacteroides thetaiotaomicron strain: 3731 for biotransformation. The drug concentrations were measured before and after a 12-h incubation by liquid-chromatography-coupled mass spectrometry (LC–MS)

[18] = bacteroides thetaiotaomicron, 12 h, 2 µM; remark: listed apart in the source
Description: The drug is tested on Bacteroides thetaiotaomicron strain: 7330 for biotransformation. The drug concentrations were measured before and after a 12-h incubation by liquid-chromatography-coupled mass spectrometry (LC–MS)

[19] = parabacteroides johnsonii, 12 h, 2 µM
Description: The drug is tested on Parabacteroides johnsonii strain: DSM18315 for biotransformation. The drug concentrations were measured before and after a 12-h incubation by liquid-chromatography-coupled mass spectrometry (LC–MS)

Row | Structure (SMILES) | Bacterial Biotransformation [1] | Bacterial Biotransformation [2] | Bacterial Biotransformation [3] | Bacterial Biotransformation [4] | Bacterial Biotransformation [5] | Bacterial Biotransformation [6] | Bacterial Biotransformation [7] | Bacterial Biotransformation [8] | Bacterial Biotransformation [9] | Bacterial Biotransformation [10] | Bacterial Biotransformation [11] | Bacterial Biotransformation [12] | Bacterial Biotransformation [13] | Bacterial Biotransformation [14] | Bacterial Biotransformation [15] | Bacterial Biotransformation [16] | Bacterial Biotransformation [17] | Bacterial Biotransformation [18] | Bacterial Biotransformation [19]
1 | CC(C)(C)N.CCC[C@H](N[C@@H](C)C(=O)N1[C@H](C(=O)O)C[C@@H]2CCCC[C@@H]21)C(=O)OCC [PERINDOPRIL ERBUMINE] | Compound NOT metabolized | Compound NOT metabolized | Compound NOT metabolized | Compound NOT metabolized | Compound NOT metabolized | Compound NOT metabolized | Compound NOT metabolized | Compound NOT metabolized | Compound NOT metabolized | Compound NOT metabolized | Compound NOT metabolized | Compound NOT metabolized | Compound NOT metabolized | – | – | – | – | – | –
2 | CC(C)[C@H]1CC[C@H](C(=O)N[C@H](Cc2ccccc2)C(=O)O)CC1 [NATEGLINIDE] | Compound metabolized | Compound NOT metabolized | Compound NOT metabolized | Compound metabolized | Compound NOT metabolized | Compound NOT metabolized | Compound NOT metabolized | Compound NOT metabolized | Compound NOT metabolized | Compound NOT metabolized | – | – | Compound NOT metabolized | Compound NOT metabolized | Compound metabolized | Compound NOT metabolized | Compound NOT metabolized | Compound NOT metabolized | –
3 | COc1ccc(Cc2nccc3cc(OC)c(OC)cc23)cc1OC [PAPAVERINE] | Compound NOT metabolized | Compound NOT metabolized | Compound NOT metabolized | – | Compound NOT metabolized | Compound NOT metabolized | Compound NOT metabolized | Compound NOT metabolized | Compound NOT metabolized | Compound NOT metabolized | – | Compound NOT metabolized | Compound NOT metabolized | Compound NOT metabolized | Compound NOT metabolized | Compound NOT metabolized | Compound NOT metabolized | Compound NOT metabolized | –
4 | CCN(CC)CCOC(=O)C1(C2CCCCC2)CCCCC1 [DICYCLOMINE] | – | Compound NOT metabolized | Compound NOT metabolized | Compound metabolized | Compound metabolized | Compound NOT metabolized | – | Compound NOT metabolized | Compound NOT metabolized | Compound NOT metabolized | Compound NOT metabolized | – | Compound NOT metabolized | – | Compound NOT metabolized | – | Compound NOT metabolized | Compound NOT metabolized | –
5 | Nc1nnc(-c2cccc(Cl)c2Cl)c(N)n1 [LAMOTRIGINE] | – | Compound NOT metabolized | Compound NOT metabolized | – | Compound NOT metabolized | Compound NOT metabolized | Compound NOT metabolized | Compound NOT metabolized | Compound NOT metabolized | Compound NOT metabolized | – | Compound NOT metabolized | Compound NOT metabolized | – | Compound NOT metabolized | Compound NOT metabolized | Compound NOT metabolized | – | –
6 | O=C(CCCN1CCC(O)(c2ccc(Cl)cc2)CC1)c1ccc(F)cc1 [HALOPERIDOL] | Compound NOT metabolized | Compound NOT metabolized | Compound NOT metabolized | Compound NOT metabolized | – | – | Compound NOT metabolized | Compound NOT metabolized | Compound NOT metabolized | Compound NOT metabolized | Compound NOT metabolized | Compound NOT metabolized | Compound NOT metabolized | Compound NOT metabolized | Compound NOT metabolized | Compound NOT metabolized | Compound NOT metabolized | Compound NOT metabolized | –
7 | COc1ccc2cc([C@H](C)C(=O)O)ccc2c1 [NAPROXEN] | Compound NOT metabolized | Compound NOT metabolized | Compound NOT metabolized | Compound NOT metabolized | Compound NOT metabolized | Compound NOT metabolized | Compound NOT metabolized | Compound NOT metabolized | Compound NOT metabolized | Compound NOT metabolized | Compound NOT metabolized | Compound NOT metabolized | Compound NOT metabolized | – | Compound NOT metabolized | – | Compound NOT metabolized | Compound NOT metabolized | –
8 | CN1[C@@H]2CC[C@H]1C[C@@H](OC(=O)C(CO)c1ccccc1)C2 (some centres undefined) [ATROPINE] | Compound NOT metabolized | Compound NOT metabolized | Compound NOT metabolized | Compound NOT metabolized | Compound NOT metabolized | Compound NOT metabolized | – | – | Compound NOT metabolized | Compound NOT metabolized | Compound NOT metabolized | Compound NOT metabolized | – | – | – | Compound NOT metabolized | – | Compound NOT metabolized | –
9 | CC(C)N(CCC(C(N)=O)(c1ccccc1)c1ccccn1)C(C)C.O=P(O)(O)O (centres undefined) [DISOPYRAMIDE PHOSPHATE] | Compound NOT metabolized | Compound NOT metabolized | Compound NOT metabolized | – | Compound NOT metabolized | Compound NOT metabolized | Compound NOT metabolized | Compound NOT metabolized | Compound NOT metabolized | Compound NOT metabolized | – | Compound NOT metabolized | – | Compound NOT metabolized | Compound NOT metabolized | Compound NOT metabolized | – | – | Compound NOT metabolized
